In PubChem BioAssay (NCI):
Values joined by “and” are separate entries in the source; they are usually repeats but may differ in a detail not shown here. Identical values can stand only once.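 1) Cells in 96-well plates. 2) Compound, 48 h, 5 concentrations. 3) Linear interpolation between surrounding doses. 4) Unreached endpoint = highest concentration. The concentration for 50% growth inhibition is given as GI50. TGI: total growth inhibition.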

Experiments:
Experiment in all cases: NCI anticancer screen, dose series, 48 h
[1] = system: 786-0 renal
[2] = system: A498 renal
[3] = system: A549 NSCLC
[4] = system: ACHN renal
[5] = system: BT-549 breast
[6] = system: CAKI-1 renal
[7] = system: CCRF-CEM leukemia
[8] = system: COLO 205 colon
[9] = system: DU-145 prostate
[10] = system: EKVX NSCLC
[11] = system: HCC-2998 colon
[12] = system: HCT-116 colon
[13] = system: HCT-15 colon
[14] = system: HL-60(TB) leukemia
[15] = system: HOP-62 NSCLC
[16] = system: HOP-92 NSCLC
[17] = system: HS 578T breast
[18] = system: HT29 colon
[19] = system: IGROV1 ovarian
[20] = system: K-562 leukemia
[21] = system: KM12 colon
[22] = system: LOX IMVI melanoma
[23] = system: M14 melanoma
[24] = system: MALME-3M melanoma
[25] = system: MCF7 breast
[26] = system: MDA-MB-231 breast
[27] = system: MDA-MB-435
[28] = system: MOLT-4 leukemia
[29] = system: NCI-H226 lung

CC1CCCc2sc3nc(NNC(=O)c4cnccn4)n(-c4ccccc4)c(=O)c3c21 (configuration not stated)
GI50 [1]: 508 nM and 274 nM
TGI [1]: 12400 nM and 5430 nM
GI50 [2]: 2620 nM and 688 nM
TGI [2]: 8540 nM and 4440 nM
GI50 [3]: 367 nM and 262 nM
TGI [3]: 22400 nM and 16200 nM
GI50 [4]: 331 nM and 217 nM
TGI [4]: 18700 nM and 13100 nM
GI50 [5]: 813 nM and 472 nM
TGI [5]: 28600 nM and 12400 nM
GI50 [6]: 559 nM and 334 nM
TGI [6]: > 54400 nM and 9230 nM
GI50 [7]: 295 nM and 169 nM
TGI [7]: > 100000 nM
GI50 [8]: 327 nM and 284 nM
TGI [8]: 3520 nM and 25000 nM
GI50 [9]: 598 nM and 339 nM
TGI [9]: > 39800 nM and 18900 nM
GI50 [10]: 383 nM and 258 nM
TGI [10]: > 100000 nM
GI50 [11]: 550 nM and 324 nM
TGI [11]: 26300 nM and 16300 nM
GI50 [12]: 338 nM and 264 nM
TGI [12]: 14000 nM and 13400 nM
GI50 [13]: 237 nM and 71.7 nM
TGI [13]: 34400 nM and 17600 nM
GI50 [14]: 367 nM and 279 nM
TGI [14]: 2750 nM and 908 nM
GI50 [15]: 385 nM and 203 nM
TGI [15]: > 100000 nM
GI50 [16]: 996 nM and 397 nM
TGI [16]: 21800 nM and 16600 nM
GI50 [17]: 3460 nM and 2790 nM
TGI [17]: > 74600 nM and 87300 nM
GI50 [18]: 975 nM and 461 nM
TGI [18]: 49000 nM and 17600 nM
GI50 [19]: 327 nM and 172 nM
TGI [19]: 16900 nM and 13300 nM
GI50 [20]: 454 nM and 399 nM
TGI [20]: > 100000 nM
GI50 [21]: 428 nM and 347 nM
TGI [21]: > 49100 nM and 32500 nM
GI50 [22]: 259 nM and 195 nM
TGI [22]: 3800 nM and 8060 nM
GI50 [23]: 321 nM and 205 nM
TGI [23]: 5440 nM and 2650 nM
GI50 [24]: 657 nM and 345 nM
TGI [24]: 11600 nM and 11100 nM
GI50 [25]: 325 nM and 238 nM
TGI [25]: > 79300 nM and 14400 nM
GI50 [26]: 425 nM and 328 nM
TGI [26]: 13400 nM and 13500 nM
GI50 [27]: 700 nM and 556 nM
TGI [27]: 25100 nM and > 40800 nM
GI50 [28]: 343 nM and 256 nM
TGI [28]: > 100000 nM
GI50 [29]: 634 nM and 277 nM
